Experimental data taken from paper PMC3853718 (Journal of Translational Medicine, 2013).

Test system: subjects with advanced malignancies
Assay: Phase 1 dose escalation: toxicity, safety and tolerability (DLT, MAD, RP2D, AEs)
[1] = Dose level 0.33 mg/m^2, 1 subject
[2] = Dose level 0.66 mg/m^2, 1 subject
[3] = Dose level 1.32 mg/m^2, 1 subject
[4] = Dose level 2.59 mg/m^2, 4 subjects
[5] = Dose level 3.63 mg/m^2, 8 subjects
[6] = Dose level 5.08 mg/m^2, 3 subjects
[7] = Dose level 7.11 mg/m^2, 7 subjects
[8] = Dose level 10 mg/m^2, 3 subjects
[9] = Dose level 12 mg/m^2, 11 subjects

Q: With `CCc1cnn2c(NCc3ccc[n+]([O-])c3)cc(N3CCCC[C@H]3CCO)nc12` [dinaciclib] as the compound, how does the “TEAE: Abdominal distension” value (14 mg/m^2 (n = 5), Grade 3–4) read?
A: 0 n (%)

Q: And the “TEAE: Abdominal pain” value (14 mg/m^2 (n = 5), Grade 3–4)?
A: 0 n (%)

Q: What about the “TEAE: Anemia” value (14 mg/m^2 (n = 5), Grade 3–4) of the same compound?
A: 1 (20) n (%)

Q: And the “TEAE: Asthenia” value (14 mg/m^2 (n = 5), Grade 3–4)?
A: 1 (20) n (%)

Q: What about the “TEAE: Back pain” value (14 mg/m^2 (n = 5), Grade 3–4) of the same compound?
A: 0 n (%)

Q: What about the “TEAE: Constipation” value (14 mg/m^2 (n = 5), Grade 3–4) of the same compound?
A: 0 n (%)

Q: And the “TEAE: Cough” value (14 mg/m^2 (n = 5), Grade 3–4)?
A: 0 n (%)

Q: What about the “TEAE: Decreased appetite” value (14 mg/m^2 (n = 5), Grade 3–4) of the same compound?
A: 0 n (%)

Q: And the “TEAE: Dehydration” value (14 mg/m^2 (n = 5), Grade 3–4)?
A: 0 n (%)

Q: And the “TEAE: Diarrhea” value (14 mg/m^2 (n = 5), Grade 3–4)?
A: 0 n (%)

Q: And the “TEAE: Dizziness” value (14 mg/m^2 (n = 5), Grade 3–4)?
A: 1 (20) n (%)

Q: What about the “TEAE: Dyspnea” value (14 mg/m^2 (n = 5), Grade 3–4) of the same compound?
A: 1 (20) n (%)

Q: And the “TEAE: Fatigue” value (14 mg/m^2 (n = 5), Grade 3–4)?
A: 0 n (%)

Q: What about the “TEAE: Flatulence” value (14 mg/m^2 (n = 5), Grade 3–4) of the same compound?
A: 0 n (%)

Q: And the “TEAE: Hyperbilirubinemia” value (14 mg/m^2 (n = 5), Grade 3–4)?
A: 1 (20) n (%)

Q: And the “TEAE: Hyperglycemia” value (14 mg/m^2 (n = 5), Grade 3–4)?
A: 1 (20) n (%)

Q: And the “TEAE: Hyperuricemia” value (14 mg/m^2 (n = 5), Grade 3–4)?
A: 1 (20) n (%)

Q: And the “TEAE: Hypokalemia” value (14 mg/m^2 (n = 5), Grade 3–4)?
A: 0 n (%)

Q: And the “TEAE: Hypophosphatemia” value (14 mg/m^2 (n = 5), Grade 3–4)?
A: 0 n (%)

Q: What about the “TEAE: Increased ALP” value (14 mg/m^2 (n = 5), Grade 3–4) of the same compound?
A: 1 (20) n (%)

Q: What about the “TEAE: Increased ALT” value (14 mg/m^2 (n = 5), Grade 3–4) of the same compound?
A: 0 n (%)

Q: What about the “TEAE: Increased AST” value (14 mg/m^2 (n = 5), Grade 3–4) of the same compound?
A: 0 n (%)

Q: And the “TEAE: Nausea” value (14 mg/m^2 (n = 5), Grade 3–4)?
A: 1 (20) n (%)

Q: And the “TEAE: Neutropenia” value (14 mg/m^2 (n = 5), Grade 3–4)?
A: 2 (40) n (%)

Q: And the “TEAE: Peripheral edema” value (14 mg/m^2 (n = 5), Grade 3–4)?
A: 0 n (%)

Q: What about the “TEAE: Pyrexia” value (14 mg/m^2 (n = 5), Grade 3–4) of the same compound?
A: 0 n (%)

Q: And the “TEAE: Subjects with any AE” value (14 mg/m^2 (n = 5), Grade 3–4)?
A: 5 (100) n (%)

Q: What about the “TEAE: Urinary tract infection” value (14 mg/m^2 (n = 5), Grade 3–4) of the same compound?
A: 0 n (%)

Q: And the “TEAE: Vomiting” value (14 mg/m^2 (n = 5), Grade 3–4)?
A: 1 (20) n (%)

Q: What about the “TEAE: Weight decreased” value (14 mg/m^2 (n = 5), Grade 3–4) of the same compound?
A: 0 n (%)

Q: What about the “maximum administered dose (MAD)” value (2-hour IV infusion on days 1, 8, 15 of a 28-day cycle) of the same compound?
A: 14 mg/m^2

Q: What about the “TEAE: Abdominal distension” value (All doses (N = 48), All grades) of the same compound?
A: 5 (10) n (%)

Q: What about the “TEAE: Abdominal pain” value (All doses (N = 48), All grades) of the same compound?
A: 8 (17) n (%)

Q: And the “TEAE: Anemia” value (All doses (N = 48), All grades)?
A: 19 (40) n (%)

Q: What about the “TEAE: Asthenia” value (All doses (N = 48), All grades) of the same compound?
A: 11 (23) n (%)

Q: And the “TEAE: Back pain” value (All doses (N = 48), All grades)?
A: 11 (23) n (%)

Q: And the “TEAE: Constipation” value (All doses (N = 48), All grades)?
A: 11 (23) n (%)

Q: And the “TEAE: Cough” value (All doses (N = 48), All grades)?
A: 5 (10) n (%)

Q: What about the “TEAE: Decreased appetite” value (All doses (N = 48), All grades) of the same compound?
A: 14 (29) n (%)

Q: What about the “TEAE: Diarrhea” value (All doses (N = 48), All grades) of the same compound?
A: 6 (13) n (%)

Q: What about the “TEAE: Dizziness” value (All doses (N = 48), All grades) of the same compound?
A: 5 (10) n (%)

Q: What about the “TEAE: Dyspnea” value (All doses (N = 48), All grades) of the same compound?
A: 7 (15) n (%)

Q: What about the “TEAE: Fatigue” value (All doses (N = 48), All grades) of the same compound?
A: 14 (29) n (%)

Q: What about the “TEAE: Flatulence” value (All doses (N = 48), All grades) of the same compound?
A: 6 (13) n (%)

Q: And the “TEAE: Hyperglycemia” value (All doses (N = 48), All grades)?
A: 7 (15) n (%)

Q: What about the “TEAE: Hyperuricemia” value (All doses (N = 48), All grades) of the same compound?
A: 5 (10) n (%)

Q: What about the “TEAE: Hypokalemia” value (All doses (N = 48), All grades) of the same compound?
A: 6 (13) n (%)

Q: And the “TEAE: Hypophosphatemia” value (All doses (N = 48), All grades)?
A: 6 (13) n (%)

Q: What about the “TEAE: Increased ALP” value (All doses (N = 48), All grades) of the same compound?
A: 8 (17) n (%)

Q: And the “TEAE: Increased ALT” value (All doses (N = 48), All grades)?
A: 6 (13) n (%)

Q: What about the “TEAE: Increased AST” value (All doses (N = 48), All grades) of the same compound?
A: 8 (17) n (%)

Q: What about the “TEAE: Nausea” value (All doses (N = 48), All grades) of the same compound?
A: 19 (40) n (%)

Q: What about the “TEAE: Neutropenia” value (All doses (N = 48), All grades) of the same compound?
A: 8 (17) n (%)

Q: And the “TEAE: Peripheral edema” value (All doses (N = 48), All grades)?
A: 7 (15) n (%)

Q: And the “TEAE: Pyrexia” value (All doses (N = 48), All grades)?
A: 8 (17) n (%)

Q: What about the “TEAE: Subjects with any AE” value (All doses (N = 48), All grades) of the same compound?
A: 47 (98) n (%)

Q: And the “TEAE: Urinary tract infection” value (All doses (N = 48), All grades)?
A: 12 (25) n (%)

Q: And the “TEAE: Vomiting” value (All doses (N = 48), All grades)?
A: 11 (23) n (%)

Q: What about the “TEAE: Weight decreased” value (All doses (N = 48), All grades) of the same compound?
A: 5 (10) n (%)

Q: And the “TEAE: Abdominal distension” value (All doses (N = 48), Grade 3–4)?
A: 0 n (%)

Q: What about the “TEAE: Abdominal pain” value (All doses (N = 48), Grade 3–4) of the same compound?
A: 2 (4) n (%)

Q: What about the “TEAE: Anemia” value (All doses (N = 48), Grade 3–4) of the same compound?
A: 5 (10) n (%)

Q: What about the “TEAE: Asthenia” value (All doses (N = 48), Grade 3–4) of the same compound?
A: 3 (6) n (%)

Q: And the “TEAE: Back pain” value (All doses (N = 48), Grade 3–4)?
A: 3 (6) n (%)

Q: What about the “TEAE: Constipation” value (All doses (N = 48), Grade 3–4) of the same compound?
A: 0 n (%)

Q: What about the “TEAE: Cough” value (All doses (N = 48), Grade 3–4) of the same compound?
A: 0 n (%)

Q: And the “TEAE: Decreased appetite” value (All doses (N = 48), Grade 3–4)?
A: 0 n (%)

Q: And the “TEAE: Dehydration” value (All doses (N = 48), Grade 3–4)?
A: 0 n (%)

Q: And the “TEAE: Diarrhea” value (All doses (N = 48), Grade 3–4)?
A: 0 n (%)

Q: And the “TEAE: Dyspnea” value (All doses (N = 48), Grade 3–4)?
A: 3 (6) n (%)

Q: What about the “TEAE: Fatigue” value (All doses (N = 48), Grade 3–4) of the same compound?
A: 2 (4) n (%)

Q: And the “TEAE: Flatulence” value (All doses (N = 48), Grade 3–4)?
A: 0 n (%)

Q: What about the “TEAE: Hyperbilirubinemia” value (All doses (N = 48), Grade 3–4) of the same compound?
A: 5 (10) n (%)

Q: And the “TEAE: Hyperglycemia” value (All doses (N = 48), Grade 3–4)?
A: 4 (8) n (%)

Q: And the “TEAE: Hyperuricemia” value (All doses (N = 48), Grade 3–4)?
A: 4 (8) n (%)

Q: And the “TEAE: Hypokalemia” value (All doses (N = 48), Grade 3–4)?
A: 2 (4) n (%)

Q: And the “TEAE: Hypophosphatemia” value (All doses (N = 48), Grade 3–4)?
A: 5 (10) n (%)

Q: What about the “TEAE: Increased ALP” value (All doses (N = 48), Grade 3–4) of the same compound?
A: 2 (4) n (%)

Q: And the “TEAE: Increased AST” value (All doses (N = 48), Grade 3–4)?
A: 2 (4) n (%)

Q: What about the “TEAE: Nausea” value (All doses (N = 48), Grade 3–4) of the same compound?
A: 1 (2) n (%)

Q: And the “TEAE: Neutropenia” value (All doses (N = 48), Grade 3–4)?
A: 5 (10) n (%)

Q: And the “TEAE: Peripheral edema” value (All doses (N = 48), Grade 3–4)?
A: 0 n (%)

Q: And the “TEAE: Pyrexia” value (All doses (N = 48), Grade 3–4)?
A: 0 n (%)

Q: What about the “TEAE: Subjects with any AE” value (All doses (N = 48), Grade 3–4) of the same compound?
A: 29 (60) n (%)

Q: What about the “TEAE: Urinary tract infection” value (All doses (N = 48), Grade 3–4) of the same compound?
A: 0 n (%)

Q: And the “TEAE: Weight decreased” value (All doses (N = 48), Grade 3–4)?
A: 0 n (%)

Q: And the DLT [1]?
A: None

Q: What about the “Subjects with DLT in cycle 1” value [1] of the same compound?
A: 0

Q: And the DLT [2]?
A: None

Q: And the “Subjects with DLT in cycle 1” value [2]?
A: 0

Q: What about the DLT [3] of the same compound?
A: None

Q: And the “Subjects with DLT in cycle 1” value [3]?
A: 0

Q: What about the DLT [4] of the same compound?
A: None

Q: And the “Subjects with DLT in cycle 1” value [4]?
A: 0

Q: And the DLT [5]?
A: Hypokalemia, hypocalcemia, hypophosphatemia

Q: And the “Subjects with DLT in cycle 1” value [5]?
A: 1

Q: And the DLT [6]?
A: None

Q: And the “Subjects with DLT in cycle 1” value [6]?
A: 0

Q: And the DLT [7]?
A: Deep vein thrombosis

Q: What about the “Subjects with DLT in cycle 1” value [7] of the same compound?
A: 1

Q: And the DLT [8]?
A: None

Q: What about the “Subjects with DLT in cycle 1” value [8] of the same compound?
A: 0

Q: What about the DLT [9] of the same compound?
A: Septic shock

Q: What about the “Subjects with DLT in cycle 1” value [9] of the same compound?
A: 1

Q: And the DLT (Dose level 14 mg/m^2, 5 subjects)?
A: Orthostatic hypotension (1), elevated uric acid (1)
